The subject of test [1] is panel of human tumour cell lines. The experiment in a line: Monolayer proliferation assay, mean IC70 across the cell line panel. Format: cell-based. Conditions: geometric mean of all replicates across the 6 cell lines; concentration inhibiting cell growth by 70%. The method, then: In vitro evaluation of compounds for anticancer activity in a panel of human tumour cell lines in a monolayer proliferation assay were carried out at the Oncotest Testing Facility, Institute for Experimental Oncology, Oncotest GmbH, Freiburg.
The Oncotest cell lines were established from human tumor xenografts as described by Roth et al., (1999). The origin of the donor xenografts was described by Fiebig at al., (1999). Other cell lines were either obtained from the NCl (DU145, MCF-7) or purchased from DSMZ, Braunschweig, Germany.
All cell lines, unless otherwise specified, were grown at 37° C. in a humidified atmosphere (95% air, 5% CO2) in a ‘ready-mix’ medium containing RPMI 1640 medium, 10% fetal calf serum, and 0.1 mg/mL gentamicin (PAA, Cölbe, Germany). […]
Briefly, cells were harvested from exponential phase cultures by trypsinization, counted and plated in 96 well flat-bottomed microtitre plates at a cell density dependent on the cell line (5-10.000 viable cells/well). […] After thawing the plates, fluorescence was measured using the Cytofluor 4000 microplate reader (excitation 530 nm, emission 620 nm), giving a direct relationship to the total number of viable cells. Growth inhibition may be expressed as treated/control×100 (% T/C). […]

The target in the next test is Hsp90 (Homo sapiens, UniProt P07900). Conditions: cited from earlier work.

As for `CO[C@H]1[C@@H](OC)C[C@H](C)[C@@H](OC)C2=CC(=O)C=C(NC(=O)/C(C)=C/C=C\[C@H](C)[C@@H](OC(N)=O)/C(C)=C/[C@@H]1C)C2=O` [macbecin], in test [1], the “average IC70 value across the cell-line panel” value worked out at 0.21 µg/mL.

On to `CO[C@H]1C[C@H](C)Cc2cc(O)cc(c2)NC(=O)/C=C/CC[C@H](OC)[C@@H](OC(N)=O)/C(C)=C/[C@H](C)[C@H]1O` [KOSN1559], for which the “binding affinity to Hsp90, fold greater than 17-AAG” value at Hsp90 (relative to 17-AAG) is listed as 8 fold. In addition, at Hsp90 (relative to geldanamycin), the “binding affinity to Hsp90, fold greater than geldanamycin” value is 4 fold.

These data come from patent US20110160175A1, “18,21-Didesoxymacbecin Derivatives for the Treatment of Cancer” (priority 2006, published 2011).
